Assay results taken from ChEMBL document CHEMBL1268837, “Novel CGRP receptor antagonists from central amide replacements causing a reversal of preferred chirality” (Bioorg Med Chem Lett, 2010).

Columns and labels:
[1] = target: T1, Calcitonin gene-related peptide type 1 receptor (Homo sapiens, UniProt O60894+Q16602); experiment: Displacement of [125I]hCGRP from human cloned CGRP receptor expressed in HEK293 cells; type: cell-based
[2] = target: T1, Calcitonin gene-related peptide type 1 receptor; experiment: Binding affinity to human recombinant CGRP receptor

T1 sequence (Q16602 whole entry, one chain of several): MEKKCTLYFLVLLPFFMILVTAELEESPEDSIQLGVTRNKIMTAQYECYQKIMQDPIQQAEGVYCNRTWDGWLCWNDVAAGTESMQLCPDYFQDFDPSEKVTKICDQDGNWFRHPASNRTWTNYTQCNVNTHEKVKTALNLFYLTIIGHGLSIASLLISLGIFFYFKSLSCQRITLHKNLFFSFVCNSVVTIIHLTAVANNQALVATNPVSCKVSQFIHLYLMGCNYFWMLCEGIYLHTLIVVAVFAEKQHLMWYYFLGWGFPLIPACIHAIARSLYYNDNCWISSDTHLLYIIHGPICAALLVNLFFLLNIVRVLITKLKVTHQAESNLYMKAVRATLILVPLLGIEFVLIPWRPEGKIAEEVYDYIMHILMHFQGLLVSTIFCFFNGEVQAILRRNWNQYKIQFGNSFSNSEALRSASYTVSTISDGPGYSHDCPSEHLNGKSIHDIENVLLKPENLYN

Structure (SMILES)	Ki [1] [nM]	Ki [2] [nM]
CC(C)(C)C(=O)N(Cc1ccc2nc3c(cc2c1)C[C@@]1(C3)C(=O)Nc2ncccc21)[C@@H]1CCc2ccccc21	0.11	–
CC(C)(C)C(=O)N(Cc1ccccc1)Cc1cnc2cc3c(cc2c1)C[C@@]1(C3)C(=O)Nc2ncccc21	1.3	–
C[C@H](c1cc(F)cc(F)c1)N(Cc1cnc2cc3c(cc2c1)C[C@@]1(C3)C(=O)Nc2ncccc21)C(=O)C(C)(C)C	0.12	–
CC(C)(C)C(=O)N(Cc1cnc2cc3c(cc2c1)C[C@@]1(C3)C(=O)Nc2ncccc21)C[C@@H]1CCc2ccccc21	0.037	–
CN1C(=O)NC(=O)[C@]12Cc1cc3cc(CN(Cc4ccccc4)C(=O)C(C)(C)C)cnc3cc1C2	–	12
CN1C(=O)NC(=O)C12Cc1cc3cc(CN(Cc4ccccc4)C(=O)C(C)(C)C)cnc3cc1C2 (stereo unspecified)	–	35
CC1(C)CC[C@@H](c2cc(F)cc(F)c2)N(Cc2cnc3cc4c(cc3c2)C[C@@]2(C4)C(=O)Nc3ncccc32)C1=O	0.3	–
CC(C)(C)C(=O)N(Cc1cc(F)cc(F)c1)Cc1cnc2cc3c(cc2c1)C[C@@]1(C3)C(=O)Nc2ncccc21	0.69	–
CC(C)(C)C(=O)N(Cc1cnc2nc3c(cc2c1)C[C@@]1(C3)C(=O)Nc2ncccc21)[C@@H]1CCc2ccccc21	0.15	–
C[C@H](c1ccccc1)N(Cc1cnc2cc3c(cc2c1)C[C@@]1(C3)C(=O)Nc2ncccc21)C(=O)C(C)(C)C	0.1	–
CN1C(=O)NC(=O)C12Cc1cc3ccc(CN(Cc4ccccc4)C(=O)C(C)(C)C)nc3cc1C2 (stereo unspecified)	–	2.2
